Assay results from patent US10100079B2, “Progesterone-cationic lipid hybrid as anticancer agent and the process of synthesis thereof” (Council of Scientific & Industrial Research, priority 2016, dated 2018).

Tests used:
[1] = tested on: T47D; assay: MTT cytotoxicity assay, T47D; type: cell-based; conditions: Homo sapiens, MTT, 48 h continuous treatment, read-out: IC50 T47D
Experimental: (§1) All cells were grown into mycoplasma free condition. […] All cells were grown up to 75-85% confluency after which cells were trypsinized, counted and seeded, in 96-well plates for cell viability studies, 6-well plates for apoptosis studies, 60 mm dish for cell cycle studies and in 25 cm^2 or 75 cm^2 tissue culture flasks for Western blot studies. The primary stock of the cationic progesterone molecules were made in cell culture grade DMSO and from that secondary stock was prepared by serial dilution with cell culture grade DMSO. The final working concentrations were prepared by diluting the secondary stock in cell culture media keeping the DMSO concentration in working solution below 0.2% with respect to cell culture medium. […] For this assay, 12-18 h before treatment cells were plated in 96-well plate at 5000 cells/well density. […] After completion of the treatment, 10 μL of MTT solution (5 mg/mL) was added in each well and incubated for 4 h. Then the media was removed carefully, and the reduced MTT was dissolved in 1:1 (v/v) DMSO/Methanol and absorbance was measured using multimode reader (Synergy H1, BioTek). Results were represented as percentage of viability={[A550(treated cells)−background]/[A550(untreated cells)−background]}×100. The result was summarized and provided as IC50 table in Table 1.

[2] = tested on: MCF7; assay: MTT cytotoxicity assay, MCF7; type: cell-based; conditions: Homo sapiens, MCF7; MTT, 48 h continuous treatment; read-out: IC50 MCF7
Experimental: as §1

[3] = tested on: OVCAR-3; assay: MTT cytotoxicity assay, OVCAR-3; type: cell-based; conditions: Homo sapiens, OVCAR-3; MTT, 48 h continuous treatment; read-out: IC50 OVCAR-3
Experimental: as §1

[4] = tested on: B16F10; assay: MTT cytotoxicity assay, B16F10; type: cell-based, murine; conditions: Mus musculus, B16-F10; MTT, 48 h continuous treatment; read-out: IC50 B16F10
Experimental: as §1

[5] = tested on: MDA-MB-231; assay: MTT cytotoxicity assay, MDA-MB-231; type: cell-based, human; conditions: Homo sapiens, MDA-MB-231; MTT, 48 h continuous treatment; read-out: IC50 MDA-MB-231
Experimental: as §1

[6] = tested on: NIH-3T3; assay: MTT cytotoxicity assay, NIH-3T3; type: cell-based, murine; conditions: Mus musculus, NIH3T3; MTT, 48 h continuous treatment, non-cancer cell; read-out: IC50 NIH-3T3
Experimental: as §1

[7] = tested on: CHO; assay: MTT cytotoxicity assay, CHO; type: cell-based, Chinese hamster; conditions: Cricetulus griseus, MTT, 48 h continuous treatment, non-cancer cell, read-out: IC50 CHO
Experimental: as §1

[8] = tested on: COS-1; assay: MTT cytotoxicity assay, COS-1; type: cell-based; conditions: Chlorocebus aethiops, COS-1; MTT, 48 h continuous treatment, non-cancer cell; read-out: IC50 COS-1
Experimental: as §1

[9] = tested on: cancer cells T47D, OVCAR-3, MDA-MB-231, MCF-7 and B16F10; assay: MTT viability, all tested cancer cells (combination treatment study, FIG. 1A); type: cell-based; conditions: 48 h, 2.5 μM-40 μM
Experimental: FIG. 1A: The viability studies of cancer cells T47D, OVCAR-3, MDA-MB-231, MCF-7 and B16F10 after 48 h of continuous treatment with compound 1 (10 μM), 10C [cationic lipid control molecule not containing progesterone moiety]
(§2) Cytotoxicity assay of the different compounds were carried out by using 3-(4,5-dimethylthiazol-2-yl)-2,5-diphenyltetrazolium bromide (MTT). For this assay, 12-18 h before treatment cells were plated in 96-well plate at 5000 cells/well density. After incubation cells were treated continuously for 48 h with respective compounds at different concentration (2.5 μM-40 μM). After completion of the treatment, 10 μL of MTT solution (5 mg/mL) was added in each well and incubated for 4 h. Then the media was removed carefully, and the reduced MTT was dissolved in 1:1 (v/v) DMSO/Methanol and absorbance was measured using multimode reader (Synergy H1, BioTek). Results were represented as percentage of viability={[A550(treated cells)−background]/[A550(untreated cells)−background]}×100. The result was summarized and provided as IC50 table in Table 1.
(§3) For combination treatment effect, cells were plated in 96 well plates at 5000 cells/well. […] Following 48 h of treatment cell viability was measured following above mentioned MTT study.

[10] = tested on: non-cancer cells CHO, COS-1 and NIH-3T3; assay: MTT viability, tested non-cancer cells (combination treatment study, FIG. 1B); type: cell-based; conditions: 48 h, 2.5 μM-40 μM
Experimental: FIG. 1B: The viability studies of non-cancer cells CHO, COS-1 and NIIH-3T3 after 48 h of continuous treatment with compound 1 (10 μM), 10C [cationic lipid control molecule not containing progesterone moiety]
as §2, §3

Compound	IC50 [1] [µM]	IC50 [2] [µM]	IC50 [3] [µM]	IC50 [4] [µM]	IC50 [5] [µM]	IC50 [6] [µM]	IC50 [7] [µM]	IC50 [8] [µM]	cell killing in all tested cancer cells [9]	toxicity towards tested non-cancer cells [10]
CCCCCC[N+](C)(CCCCCC)CCNC(=O)CCC(=O)O[C@@H](C)[C@H]1CCC2C3CCC4=CC(=O)CC[C@]4(C)C3CC[C@@]21C (stereo partly drawn) [Compound 6a, N-(2-(4-((1S)-1-((10R,13S,17S)-10,13-dimethyl-3-oxo-2,3,6,7,8,9,10,11,12,13,14,15,16,17-tetradecahydro-1H-cyclopenta[a]phenanthren-17-yl)ethoxy)-4-oxobutanamido)ethyl)-N-hexyl-N-methylhexan-1-aminium chloride]	7.43 ± 0.76	> 15	13.9 ± 0.53	> 15	5.78 ± 0.38	> 20	17.9 ± 0.56	> 20	–	–
CCCCCCCC[N+](C)(CCCCCCCC)CCNC(=O)CCC(=O)O[C@@H](C)[C@H]1CCC2C3CCC4=CC(=O)CC[C@]4(C)C3CC[C@@]21C.[Cl-] (stereo partly drawn) [Compound 6b, N-(2-(4-((1S)-1-((10R,13S,17S)-10,13-dimethyl-3-oxo-2,3,6,7,8,9,10,11,12,13,14,15,16,17-tetradecahydro-1H-cyclopenta[a]phenanthren-17-yl)ethoxy)-4-oxobutanamido)ethyl)-N-methyl-N-octyloctan-1-aminium chloride]	4.07 ± 0.23	8.28 ± 0.12	11.9 ± 0.45	9.95 ± 0.32	8.56 ± 0.52	> 20	17 ± 0.41	> 20	significant amount of cell killing	largely non-toxic
CCCCCCCCCCCC[N+](C)(CCCCCCCCCCCC)CCNC(=O)CCC(=O)O[C@@H](C)[C@H]1CCC2C3CCC4=CC(=O)CC[C@]4(C)C3CC[C@@]21C.[Cl-] (stereo partly drawn) [Compound 6d, N-(2-(4-((1S)-1-((10R,13S,17S)-10,13-dimethyl-3-oxo-2,3,6,7,8,9,10,11,12,13,14,15,16,17-tetradecahydro-1H-cyclopenta[a]phenanthren-17-yl)ethoxy)-4-oxobutanamido)ethyl)-N-dodecyl-N-methyldodecan-1-aminium chloride]	12.8 ± 0.43	7.04 ± 0.28	6.83 ± 0.13	9.54 ± 0.18	6.36 ± 0.19	> 20	17.5 ± 0.18	> 20	significant amount of cell killing	largely non-toxic
CCCCCCCCCCCCCC[N+](C)(CCCCCCCCCCCCCC)CCNC(=O)CCC(=O)O[C@@H](C)[C@H]1CCC2C3CCC4=CC(=O)CC[C@]4(C)C3CC[C@@]21C (stereo partly drawn) [Compound 6e, N-(2-(4-((1S)-1-((10R,13S,17S)-10,13-dimethyl-3-oxo-2,3,6,7,8,9,10,11,12,13,14,15,16,17-tetradecahydro-1H-cyclopenta[a]phenanthren-17-yl)ethoxy)-4-oxobutanamido)ethyl)-N-methyl-N-tetradecyltetradecan-1-aminium chloride]	> 15	> 15	> 15	> 15	> 15	> 20	> 15	> 20	–	–
CCCCCCCCCCCCCCCC[N+](C)(CCCCCCCCCCCCCCCC)CCNC(=O)CCC(=O)O[C@@H](C)[C@H]1CCC2C3CCC4=CC(=O)CC[C@]4(C)C3CC[C@@]21C (stereo partly drawn) [Compound 6f, N-(2-(4-((1S)-1-((10R,13S,17S)-10,13-dimethyl-3-oxo-2,3,6,7,8,9,10,11,12,13,14,15,16,17-tetradecahydro-1H-cyclopenta[a]phenanthren-17-yl)ethoxy)-4-oxobutanamido)ethyl)-N-hexadecyl-N-methylhexadecan-1-aminium chloride]	> 15	> 15	> 15	> 15	> 15	> 20	> 15	> 20	–	–
CCCCCCCCCCCCCCCCCC[N+](C)(CCCCCCCCCCCCCCCCCC)CCNC(=O)CCC(=O)O[C@@H](C)[C@H]1CCC2C3CCC4=CC(=O)CC[C@]4(C)C3CC[C@@]21C (stereo partly drawn) [Compound 6g, N-(2-(4-((1S)-1-((10R,13S,17S)-10,13-dimethyl-3-oxo-2,3,6,7,8,9,10,11,12,13,14,15,16,17-tetradecahydro-1H-cyclopenta[a]phenanthren-17-yl)ethoxy)-4-oxobutanamido)ethyl)-N-methyl-N-octadecyloctadecan-1-aminium chloride]	> 15	> 15	> 15	> 15	> 15	> 20	> 15	> 20	–	–
